*1 amine or outer side, *2 acyl side, *3 side chain or, on linkers, in order; H or OH if unused. Where a SMILES comes first, the peptide text is derived from it. Side-chain parts run from the residue outwards. The star is where a group is joined. C18 diacid = O=C(O)CCCCCCCCCCCCCCCCC(=O)*; γGlu = O=C(O)[C@H](CCC(=O)[*:2])N[*:1]; Isovaleryl = CC(C)CC(=O)*; AEEA = NCCOCCOCC(=O)O
What follows are compounds tested against T1, Human Neuropeptide Y2 Receptor (Homo sapiens, UniProt P49146) (assay: Radioligand binding competition assay (RLB)). Settings: Table 3; human 125I-PYY (1-36) 0.02 nM, Y2 receptor membranes; read-out: Ki.
T1 construct: purchased CHEMICON HTS066M
T1 sequence (P49146 1-381): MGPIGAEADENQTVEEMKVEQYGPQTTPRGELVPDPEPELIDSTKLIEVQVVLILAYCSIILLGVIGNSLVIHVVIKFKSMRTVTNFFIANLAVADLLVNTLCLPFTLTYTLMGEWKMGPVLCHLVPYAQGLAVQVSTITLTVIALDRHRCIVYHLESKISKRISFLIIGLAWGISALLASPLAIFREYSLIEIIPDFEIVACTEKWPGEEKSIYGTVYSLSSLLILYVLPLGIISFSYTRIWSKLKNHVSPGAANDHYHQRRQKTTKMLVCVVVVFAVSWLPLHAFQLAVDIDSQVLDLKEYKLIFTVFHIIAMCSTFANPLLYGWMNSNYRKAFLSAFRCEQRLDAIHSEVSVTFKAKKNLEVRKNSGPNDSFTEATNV
Procedure: The filtration RLB assay was carried out in 96-well plates in a final volume of 100 μl per well. Freeze-dried test peptides were dissolved in 100% dimethyl sulfoxide (DMSO) to stock solutions of 1 mM and serial dilutions were performed in assay buffer (50 mM HEPES, 5 mM MgCl2, 1 mM CaCl2), pH 7.4) containing 0.2% ovalbumin. […] Next, 80 μL membranes (HTS066M, ChemiSCREEN™ Human Neuropeptide Y2 Receptor Membrane Preparation, CHEMICON) were added to each well to give a final protein concentration of 0.5 μg/well. The plates were sealed and incubated at room temperature for 2 hours in a plate shaker set at 400 rpm. The incubation was stopped by vacuum filtration onto 0.5% poly-ethylene amine (PEI) presoaked GF/C filters using a 96-well FilterMate™ harvester (Perkin Elmer) followed by four washes with 300 μl/well ice-cold wash buffer (50 mM HEPES, 500 mM NaCl, pH7.4). Filter plates were then dried for 60 min at room temperature and the bottom of the plates was sealed with backing tape UniFilter-96. Finally, 50 μl/well scintillation counter cocktail (Microscint20, Packard) was added and the radioactivity was counted in the Packard TopCount NXT scintillation counter. IC50 values (the half maximal inhibitory concentration of the agonist) were calculated by nonlinear regression analysis of sigmoidal dose-response curves.
With CC(C)CC(=O)N[C@@H](C)C(=O)N1CCC[C@H]1C(=O)N[C@@H](CCC(=O)O)C(=O)N[C@@H](CCCCNC(=O)COCCOCCNC(=O)COCCOCCNC(=O)CC[C@H](NC(=O)CCCCCCCCCCCCCCCCC(=O)O)C(=O)O)C(=O)N1CCC[C@H]1C(=O)N[C@@H](CCC(=O)O)C(=O)N[C@@H](CCC(=O)O)C(=O)N[C@@H](CC(=O)O)C(=O)N[C@@H](C)C(=O)N[C@@H](C)C(=O)N1CCC[C@H]1C(=O)N[C@@H](CCC(=O)O)C(=O)N[C@@H](CCC(=O)O)C(=O)N[C@@H](CC(C)C)C(=O)N[C@@H](CCC(N)=O)C(=O)N[C@@H](CCC(N)=O)C(=O)N[C@@H](Cc1ccc(O)cc1)C(=O)N[C@@H](Cc1ccc(O)cc1)C(=O)N[C@H](C(=O)N[C@@H](CO)C(=O)N[C@@H](CC(C)C)C(=O)N[C@@H](CCCNC(=N)N)C(=O)N[C@@H](Cc1c[nH]cn1)C(=O)N[C@@H](Cc1ccc(O)cc1)C(=O)N[C@@H](Cc1ccc(O)cc1)C(=O)N[C@@H](CC(N)=O)C(=O)N[C@@H](Cc1c[nH]c2ccccc12)C(=O)N[C@@H](CC(C)C)C(=O)N[C@H](C(=O)N[C@@H](CCCNC(=N)N)C(=O)N[C@@H](CCC(N)=O)C(=O)N[C@@H](CCCNC(=N)N)C(=O)N[C@@H](Cc1ccc(O)cc1)C(N)=O)[C@@H](C)O)C(C)C [Compound 13, N{alpha-4}-(3-methylbutanoyl)-N{epsilon-7}-[2-(2-{2-[2-(2-{2-[(4S)-4-carboxy-4-(17-carboxyheptadecanamido)butanamido]ethoxy}ethoxy)acetamido]ethoxy}ethoxy)acetamido]-[4A,7K,9E,13A,18Q,19Q,22V,28Y,30W,31L]hPYY (4-36)] the Ki was 1.29 nM.
CC[C@H](C)[C@H](NC(=O)[C@H](CCC(=O)O)NC(=O)[C@H](CCC(=O)O)NC(=O)[C@@H]1CCCN1C(=O)[C@H](CO)NC(=O)[C@H](C)NC(=O)[C@H](CC(=O)O)NC(=O)[C@H](CCC(=O)O)NC(=O)[C@H](CCC(=O)O)NC(=O)[C@@H]1CCCN1C(=O)[C@H](CCCCNC(=O)COCCOCCNC(=O)COCCOCCNC(=O)CC[C@H](NC(=O)CCCCCCCCCCCCCCCCC(=O)O)C(=O)O)NC(=O)[C@H](CCC(=O)O)NC(=O)[C@@H]1CCCN1C(=O)[C@H](C)NC(=O)CC(C)C)C(=O)N[C@@H](CCC(N)=O)C(=O)N[C@@H](CCCNC(=N)N)C(=O)N[C@@H](Cc1ccc(O)cc1)C(=O)N[C@@H](CCC(=O)O)C(=O)N[C@H](C(=O)N[C@@H](CO)C(=O)N[C@@H](CC(C)C)C(=O)N[C@@H](CCCNC(=N)N)C(=O)N[C@@H](Cc1c[nH]cn1)C(=O)N[C@@H](Cc1ccc(O)cc1)C(=O)N[C@@H](Cc1ccc(O)cc1)C(=O)N[C@@H](CC(N)=O)C(=O)N[C@@H](Cc1c[nH]c2ccccc12)C(=O)N[C@@H](CC(C)C)C(=O)N[C@H](C(=O)N[C@@H](CCCNC(=N)N)C(=O)N[C@@H](CCC(N)=O)C(=O)N[C@@H](CCCNC(=N)N)C(=O)N[C@@H](Cc1ccc(O)cc1)C(N)=O)[C@@H](C)O)C(C)C [Compound 15, N{alpha-4}-(3-methylbutanoyl)-N{epsilon-7}-[2-(2-{2-[2-(2-{2-[(4S)-4-carboxy-4-(17-carboxyheptadecanamido)butanamido]ethoxy}ethoxy)acetamido]ethoxy}ethoxy)acetamido]-[4A,7K,9E,17I,18Q,21E,22V,28Y,30W,31L]hPYY (4-36)] was tested, and the Ki was 2.89 nM.
CC(C)CC(=O)N[C@@H](C)C(=O)N1CCC[C@H]1C(=O)N[C@@H](CCC(=O)O)C(=O)N[C@@H](CCCCNC(=O)COCCOCCNC(=O)COCCOCCNC(=O)CC[C@H](NC(=O)CCCCCCCCCCCCCCCCC(=O)O)C(=O)O)C(=O)N1CCC[C@H]1C(=O)N[C@@H](CCC(=O)O)C(=O)N[C@@H](CCC(=O)O)C(=O)N[C@@H](CC(=O)O)C(=O)N[C@@H](C)C(=O)N[C@@H](CO)C(=O)N1CCC[C@H]1C(=O)N[C@@H](C)C(=O)N[C@@H](CCC(=O)O)C(=O)N[C@@H](CC(C)C)C(=O)N[C@@H](CCC(N)=O)C(=O)N[C@@H](CCCNC(=N)N)C(=O)N[C@@H](Cc1ccc(O)cc1)C(=O)N[C@@H](Cc1ccc(O)cc1)C(=O)N[C@H](C(=O)N[C@@H](CO)C(=O)N[C@@H](CC(C)C)C(=O)N[C@@H](CCCNC(=N)N)C(=O)N[C@@H](Cc1c[nH]cn1)C(=O)N[C@@H](Cc1ccc(O)cc1)C(=O)N[C@@H](Cc1ccc(O)cc1)C(=O)N[C@@H](CC(N)=O)C(=O)N[C@@H](Cc1c[nH]c2ccccc12)C(=O)N[C@@H](CC(C)C)C(=O)N[C@H](C(=O)N[C@@H](CCCNC(=N)N)C(=O)N[C@@H](CCC(N)=O)C(=O)N[C@@H](CCCNC(=N)N)C(=O)N[C@@H](Cc1ccc(O)cc1)C(N)=O)[C@@H](C)O)C(C)C [Compound 17, N{alpha-4}-(3-methylbutanoyl)-N{epsilon-7}-[2-(2-{2-[2-(2-{2-[(4S)-4-carboxy-4-(17-carboxyheptadecanamido)butanamido]ethoxy}ethoxy)acetamido]ethoxy}ethoxy)acetamido]-[4A,7K,9E,15A,18Q,22V,28Y,30W,31L]hPYY (4-36)] showed a Ki of 0.93 nM.
CC(C)CC(=O)N[C@@H](C)C(=O)N1CCC[C@H]1C(=O)N[C@@H](CCC(=O)O)C(=O)N[C@@H](CCCCNC(=O)COCCOCCNC(=O)COCCOCCNC(=O)CC[C@H](NC(=O)CCCCCCCCCCCCCCCCC(=O)O)C(=O)O)C(=O)N1CCC[C@H]1C(=O)N[C@@H](CCC(=O)O)C(=O)N[C@@H](C)C(=O)N[C@@H](CC(=O)O)C(=O)N[C@@H](C)C(=O)N[C@@H](CO)C(=O)N1CCC[C@H]1C(=O)N[C@@H](CCC(=O)O)C(=O)N[C@@H](CCC(=O)O)C(=O)N[C@@H](CC(C)C)C(=O)N[C@@H](CCC(N)=O)C(=O)N[C@@H](CCC(N)=O)C(=O)N[C@@H](Cc1ccc(O)cc1)C(=O)N[C@@H](Cc1ccc(O)cc1)C(=O)N[C@H](C(=O)N[C@@H](CO)C(=O)N[C@@H](CC(C)C)C(=O)N[C@@H](CCCNC(=N)N)C(=O)N[C@@H](Cc1c[nH]cn1)C(=O)N[C@@H](Cc1ccc(O)cc1)C(=O)N[C@@H](Cc1ccc(O)cc1)C(=O)N[C@@H](CC(N)=O)C(=O)N[C@@H](Cc1c[nH]c2ccccc12)C(=O)N[C@@H](CC(C)C)C(=O)N[C@H](C(=O)N[C@@H](CCCNC(=N)N)C(=O)N[C@@H](CCC(N)=O)C(=O)N[C@@H](CCCNC(=N)N)C(=O)N[C@@H](Cc1ccc(O)cc1)C(N)=O)[C@@H](C)O)C(C)C [Compound 19, N{alpha-4}-(3-methylbutanoyl)-N{epsilon-7}-[2-(2-{2-[2-(2-{2-[(4S)-4-carboxy-4-(17-carboxyheptadecanamido)butanamido]ethoxy}ethoxy)acetamido]ethoxy}ethoxy)acetamido]-[4A,7K,9E,10A,18Q,19Q,22V,28Y,30W,31L]hPYY (4-36)] (Isovaleryl-APEK([AEEA-AEEA-γGlu-C18 diacid])PEADASPEELQQYYVSLRHYYNWLTRQRY-NH2) showed a Ki of 0.39 nM.

Source: patent publication US12559529B2, “NPY2 receptor agonists” (Boehringer Ingelheim International GmbH, priority 2019, dated 2026)
